Measured values published in patent publication US20240336566A1, “CRYSTALLINE FORMS OF A COMPOUND FOR THE TARGETED DEGRADATION OF THE ANDROGEN RECEPTOR” (Arvinas Operations, Inc., priority 2023, published 2024).

Key:
Assay type in all cases: physicochemical
[1] = Primary salt screen: XRPD post temperature cycling/evaporation, post drying and post storage at 40° C./75% RH; conditions: post drying and 40° C./75% RH
Experimental: • 30 mg samples of Compound A were weighed out into 2 mL screw cap sample vials for 96 experiments. To these, 200 μL of the appropriate solvent system was added to dissolve the material or form a slurry. See Table 16 for the solvent systems selected for the primary salt screen.
• 1.05 eq. of solid counterions were weighed into six separate vials each and 1 molar stock solutions were prepared for liquid counterions in 5 mL of THF. See Table 17 for selected counterions and mass/volume needed for 1.05 eq. additions. • 100 μL of the appropriate solvent was added to the solid counterions.
The solution/slurry of counterion was added to the solution/slurry of the free base material.
• The samples were placed in an incubator shaker to temperature cycle between ambient and 40° C. over 4 hour cycles. • After ca. 72 hours of temperature cycling, observations were noted, see Table 19.
• Where slurries were obtained, the solids were isolated via centrifugation. Solids and gels were analyzed by XRPD.
Any samples that were clear solutions after temperature cycling were left to evaporate at ambient conditions. See Table 20 for observations made after evaporation. Solids obtained through evaporation were analyzed by XRPD.
• The samples obtained from temperature cycling were dried under vacuum at 40° C. for ca. 20 hours while the samples obtained from evaporation were dried under vacuum at 40° C. for ca. 4 hours. […]

[2] = Thermodynamic solubility determination in buffers (HPLC)
Text: No clear solubility advantage of the salts was noted over Compound A free base.

[3] = 7-day stability assessment (appearance, HPLC, XRPD); conditions: for Reported Purity / Total impurities: HPLC; for purity retained after stability storage (HPLC): after 7 days at 40° C./75% RH (open vial), 80° C. (closed vial), ambient light (closed vial)
Experimental: The material was gently ground to release any agglomerates and loaded onto a multi-well plate with Kapton or Mylar polymer film to support the sample. […] Data were visualized and images generated using the HighScore Plus 4.7 desktop application (PANalytical, 2θ17).
They all remained white or off-white solids. • XRPD analysis determined the patterns were retained.

[4] = Buffer pH 1.2, 25° C., cf concentration of free base, listed as Compound A Besylate
[5] = Buffer pH 3.0, 25° C., LOQ 0.00025 mg/mL
[6] = Buffer pH 4.0, 25° C., LOQ 0.00025 mg/mL
[7] = input material before storage (baseline of the stability assessment)
[8] = Buffer pH 1.2, 25° C., cf concentration of free base, listed as Compound A Phosphate
[9] = Buffer pH 1.2, 25° C., cf concentration of free base, listed as Compound A Tosylate
[10] = buffer, 25 °C, pH 3, aqueous buffer, thermodynamic from solid, Buffer pH 3.0, LOQ 0.00025 mg/mL

SMILES | assessment of salt form in the primary salt screen [1] | 0 Hr Solubility [2, 5] [µg/mL] | 4 Hr Solubility [2, 5] [µg/mL] | 24 Hr Solubility [2, 5] [µg/mL] | 0 Hr Solubility [2, 6] [µg/mL] | 4 Hr Solubility [2, 6] [µg/mL] | Reported Purity ([3]; after 7 days at 80° C.) [Area %] | Total impurities ([3]; after 7 days at 80° C.) [Area %] | Reported Purity ([3]; after 7 days at ambient) [Area %] | Total impurities ([3]; after 7 days at ambient) [Area %] | purity retained after stability storage (HPLC) [3] [% relative area] | also measured
COc1cc(O[C@H]2C(C)(C)[C@H](NC(=O)c3ccc(N4CCC(CN5CCN(c6ccc(C(=O)N[C@H]7CCC(=O)NC7=O)c(F)c6)CC5)CC4)cc3)C2(C)C)ccc1C#N [besylate Pattern 1] | stable hydrates | <0.25 | <0.25 | <0.25 | <0.25 | <0.25 | 97.56 | 2.44 | 97.17 | 2.83 | > 97 | 0 Hr Solubility [2, 4]: 13.3 µg/mL; 4 Hr Solubility [2, 4]: 7.3 µg/mL; 24 Hr Solubility [2, 4]: 9.3 µg/mL; 24 Hr Solubility ([2]; Buffer pH 4.0, 25° C., LOQ 0.00025 mg/mL, listed as Compound A Besylate): < 0.25 µg/mL; Reported Purity ([3]; after 7 days at 40° C./75% RH): 97.31 Area %; Total impurities ([3]; after 7 days at 40° C./75% RH): 2.69 Area %; Reported Purity [3, 7]: 97.33 Area %; Total impurities [3, 7]: 2.67 Area %
COc1cc(O[C@H]2C(C)(C)[C@H](NC(=O)c3ccc(N4CCC(CN5CCN(c6ccc(C(=O)N[C@H]7CCC(=O)NC7=O)c(F)c6)CC5)CC4)cc3)C2(C)C)ccc1C#N [phosphate Pattern 1] | stable hydrates | <0.25 | <0.25 | <0.25 | <0.25 | <0.25 | – | – | – | – | – | 0 Hr Solubility [2, 8]: 5.9 µg/mL; 4 Hr Solubility [2, 8]: 29.1 µg/mL; 24 Hr Solubility [2, 8]: 30.6 µg/mL; 24 Hr Solubility ([2]; Buffer pH 4.0, 25° C., LOQ 0.00025 mg/mL, listed as Compound A Phosphate): <0.25 µg/mL; thermodynamic solubility ([2]; pH 1.2, after 24 hours, 25° C., as concentration of Compound A free base): 30.6 µg/mL
COc1cc(O[C@H]2C(C)(C)[C@H](NC(=O)c3ccc(N4CCC(CN5CCN(c6ccc(C(=O)N[C@H]7CCC(=O)NC7=O)c(F)c6)CC5)CC4)cc3)C2(C)C)ccc1C#N [tosylate Pattern 1] | stable hydrates | – | – | – | <0.25 | <0.25 | 96.76 | 3.24 | 97.09 | 2.91 | > 96 | 0 Hr Solubility [2, 9]: 12.2 µg/mL; 4 Hr Solubility [2, 9]: 15.4 µg/mL; 24 Hr Solubility [2, 9]: 6.3 µg/mL; 24 Hr Solubility ([2]; Buffer pH 4.0, 25° C., LOQ 0.00025 mg/mL, listed as Compound A Tosylate): <0.25 µg/mL; solubility at 0 h [2, 10]: < 0.25 µg/mL; solubility at 4 h [2, 10]: < 0.25 µg/mL; solubility at 24 h [2, 10]: < 0.25 µg/mL; HPLC purity ([3]; 7 days at 40° C./75% RH (open vial)): 97.30 % relative area; Total impurities (HPLC) ([3]; after 7 days at 40° C./75% RH): 2.70 Rel. Area %; XRPD pattern after stability storage ([3]; after 7 days at each stability condition): gained an additional peak; Total impurities (HPLC) ([3]; before stability testing): 2.56 Rel. Area %; HPLC purity ([3]; before stability testing (condition N/A)): 97.44 % relative area
